Results: patent publication US20260250318A1, “COMPOSITIONS AND METHODS FOR CROSSING THE BLOOD BRAIN BARRIER” (VOYAGER THERAPEUTICS, INC., priority 2022, published 2026)

Tested on: brains, heart, liver, muscle, and DRG of the NHPs
Experiment: Maturation of TTM-001 and TTM-002 capsids, NGS enrichment in NHP tissues
Type: in vivo
Text: This Example describes maturation of the AAV9 capsid variants, TTM-001 (SEQ ID NO: 981 (amino acid) and 983 (DNA), comprising SEQ ID NO: 941 (encoded by SEQ ID NO: 942)) and TTM-002 (SEQ ID NO: 982 (amino acid) and 984 (DNA), comprising SEQ ID NO: […] (encoded by SEQ ID NO: 944)) in NHPs to further enhance their transduction and biodistribution in the central nervous system as well as other tissues, and evolve the AAV capsid variants to provide further cross-species compatibility. Two approaches were used to mature the TTM-001 and TTM-002 capsid sequences in order to randomize and mutate within and around the peptide insert comprised within loop IV of the capsid variant. […] In the first maturation approach, sets of three contiguous amino acids were randomized across the mutagenesis region in the TTM-001 and TTM-002 sequences, which spanned from position 450 to position 466, numbered according to SEQ ID NO: 981 and 982. In the second maturation approach, mutagenic primers were used to introduce point mutations at a low frequency, scattered across the mutagenesis region in the TTM-001 and TTM-002 sequences ranging from position 449 to position 466, numbered according to SEQ ID NO: 981 and 982. AAV capsid variants arising from each maturation approach for TTM-001 and TTM-002 were pooled together, for subsequent testing and characterization in NHPs.
The library of pooled matured AAV capsid variants generated using the first maturation approach and the second maturation approach for the TTM-001 and TTM-002 AAV capsid variants were injected into two NHPs. […] Following RNA recovery and RT-PCR amplification, a systematic NGS enrichment analysis was performed to calculate the fold enrichment ratio relative to an AAV9 control, and the peptides comprised within the variants were identified.
Following the RNA recovery and NGS analysis from the second maturation approach, approximately 680,000 capsid variants were identified. The 680,000 matured capsid variants were then filtered based on samples with a raw virus count greater than 10 and a coefficient of variance (CV) of less than 1, which was calculated for each peptide across the brain samples taken from the two NHPs. […] Using this filtering criteria, this led to approximately 64,000 matured capsid variants.

[1] = NHP DRG, NGS, relative to AAV9 control
[2] = NHP brain, NGS, relative to AAV9 control
[3] = NHP heart, NGS, relative to AAV9 control
[4] = NHP liver DNA, NGS, relative to AAV9 control
[5] = NHP liver RNA, NGS, TTM-001 and TTM-002 matured AAV capsid variants, relative to AAV9 control
[6] = NHP muscle, NGS, relative to AAV9 control
[7] = NGS fold-enrichment, DRG, NHP, relative to AAV9
[8] = NGS fold-enrichment, brain, NHP, relative to AAV9
[9] = NGS fold-enrichment, heart, NHP, relative to AAV9
[10] = NGS fold-enrichment, liver DNA, NHP, relative to AAV9
[11] = NGS fold-enrichment, liver RNA, NHP, relative to AAV9
[12] = NGS fold-enrichment, muscle, NHP, relative to AAV9

| Sequence | Fold Enrichment relative to AAV9, DRG (NHP) [1] | Fold Enrichment relative to AAV9, Brain (NHP) [2] | Fold Enrichment relative to AAV9, Heart (NHP) [3] | Fold Enrichment relative to AAV9, Liver DNA (NHP) [4] | Fold Enrichment relative to AAV9, Liver RNA (NHP) [5] | Fold Enrichment relative to AAV9, Muscle (NHP) [6] | Fold Enrichment relative to AAV9, DRG (NHP) [7] | Fold Enrichment relative to AAV9, Brain (NHP) [8] | Fold Enrichment relative to AAV9, Heart (NHP) [9] | Fold Enrichment relative to AAV9, Liver DNA (NHP) [10] | Fold Enrichment relative to AAV9, Liver RNA (NHP) [11] | Fold Enrichment relative to AAV9, Muscle (NHP) [12] |
| --- | --- | --- | --- | --- | --- | --- | --- | --- | --- | --- | --- | --- |
| KTINGSGSPHSCHQNQQT | 0.000 fold | 0.000 fold | 0.000 fold | 8.562 fold | 56.242 fold | 0.000 fold |  |  |  |  |  |  |
| KTINGSGSPHYGIQNQQT | 0.000 fold | 0.000 fold | 0.000 fold | 1.076 fold | 30.908 fold | 0.000 fold |  |  |  |  |  |  |
| KTINGSGSPHPKRQNQQT | 0.000 fold | 0.000 fold | 0.000 fold | 2.355 fold | 23.055 fold | 0.000 fold |  |  |  |  |  |  |
| KTINALRSPHSKAQNQQT | 0.000 fold | 0.000 fold | 0.000 fold | 1.655 fold | 20.053 fold | 0.000 fold |  |  |  |  |  |  |
| KTINGSGSPHSKACISQT | 0.000 fold | 0.000 fold | 0.000 fold | 0.240 fold | 17.371 fold | 0.000 fold |  |  |  |  |  |  |
| KTINGSGSPHSGCQNQQT | 0.000 fold | 0.000 fold | 0.000 fold | 1.981 fold | 24.818 fold | 0.000 fold |  |  |  |  |  |  |
| KTINGSGSPHSVRCNQQT | 0.000 fold | 0.000 fold | 0.000 fold | 3.912 fold | 15.860 fold | 0.000 fold |  |  |  |  |  |  |
| KTINGSGSPHSYMRNQQT | 0.000 fold | 0.000 fold | 0.000 fold | 2.293 fold | 20.007 fold | 0.000 fold |  |  |  |  |  |  |
| KTIFDCGSPHSKAQNQQT | 0.000 fold | 0.000 fold | 0.000 fold | 1.602 fold | 27.844 fold | 0.000 fold |  |  |  |  |  |  |
| KTINGSGSPHSKSEQQQT | 0.000 fold | 0.000 fold | 0.000 fold | 1.769 fold | 11.785 fold | 0.000 fold |  |  |  |  |  |  |
| KTINGSGSPHSKARQRQT | 0.000 fold | 0.000 fold | 0.000 fold | 2.205 fold | 56.775 fold | 0.000 fold |  |  |  |  |  |  |
| KTINGPWSPHRKAQNQQT | 0.000 fold | 0.000 fold | 0.000 fold | 0.434 fold | 12.103 fold | 0.000 fold |  |  |  |  |  |  |
| KTINGSGSPHLCTQNQQT | 0.000 fold | 0.000 fold | 0.000 fold | 2.489 fold | 11.176 fold | 0.000 fold |  |  |  |  |  |  |
| KTINGSGSPHKSGQNPQT |  |  |  |  |  |  | 0.000 fold | 0.000 fold | 0.000 fold | 11.790 fold | 11.014 fold | 0.000 fold |
| KTINGLVSPHRKAQNQQT | 0.000 fold | 0.000 fold | 0.000 fold | 2.739 fold | 23.417 fold | 0.000 fold |  |  |  |  |  |  |
| KTINGSGSPHSYYSNQQT |  |  |  |  |  |  | 0.000 fold | 0.000 fold | 0.000 fold | 2.856 fold | 10.680 fold | 0.000 fold |
| KTINGSGSPHSKAQTCRT | 0.000 fold | 0.000 fold | 0.000 fold | 6.369 fold | 26.472 fold | 0.000 fold |  |  |  |  |  |  |
| KTINGTRSPHKKAQNQQT | 0.225 fold | 0.700 fold | 0.052 fold | 1.152 fold | 14.173 fold | 4.082 fold |  |  |  |  |  |  |
| KTINFTRSPHSKAQNQQT | 0.000 fold | 0.000 fold | 0.000 fold | 3.751 fold | 14.908 fold | 0.000 fold |  |  |  |  |  |  |
| KYIVGSGSPHSKAQNQQT (peptide inserted in AAV capsid) | 0.000 fold | 0.000 fold | 0.000 fold | 4.480 fold | 94.721 fold | 0.000 fold |  |  |  |  |  |  |
| KTINGSGSPHSKAQCLKT | 0.000 fold | 0.000 fold | 0.000 fold | 1.453 fold | 49.565 fold | 0.000 fold |  |  |  |  |  |  |
| KTINSCFSPHSKAQNQQT | 0.000 fold | 0.000 fold | 0.000 fold | 1.016 fold | 11.847 fold | 0.000 fold |  |  |  |  |  |  |
| KTINGSGSPHSCQSNQQT |  |  |  |  |  |  | 0.000 fold | 0.000 fold | 0.000 fold | 1.468 fold | 10.631 fold | 0.000 fold |
| KTINGSGSPHSFTCNQQT | 0.000 fold | 0.000 fold | 0.000 fold | 2.155 fold | 63.936 fold | 271.289 fold |  |  |  |  |  |  |
| KTINGSGSPHSKFKNQQT | 0.000 fold | 0.000 fold | 0.000 fold | 1.074 fold | 21.951 fold | 0.000 fold |  |  |  |  |  |  |
